Assay results taken from patent publication US20110318424A1, “METHODS FOR PROLONGING VIABILITY OF CONE CELLS USING MODULATORS OF THE MAMMALIAN TARGET OF RAPAMYCINE (mTOR)” (PRESIDENT AND FELLOWS OF HARVARD COLLEGE, priority 2008, published 2011).
“Also recorded” adds a separate entry of the source.

Columns and labels:
cones of PDE-β−/− mice = assay: Cone survival in PDE-β−/− mice after systemic insulin or streptozotocin treatment (lacZ staining of retinal flat mounts); assay type: in vivo, mouse; conditions: for cone survival: 4 weeks of treatment from PW3, read at PW7, versus uninjected control; for cone survival after prolonged treatment: 7 weeks of treatment from PW3, read at PW10, versus untreated
Experimental: (§1) Rapamycin, Streptozotocin and Insulin treatments were performed as follows. Rapamycin was diluted to 10 mg/ml in ethanol. The stock was diluted to 0.015 mg/ml in drinking water over a period of 2 weeks. A single intraperitoneal injection of 150 μl (12 mg/ml in 0.1M citric acid, ph4.5) of Streptozotocin was injected at postnatal day (P) 21. Insulin was injected intraperitoneally daily starting at P21. The concentration was increased weekly such that the first week, 10 U/kg body weight, the second 15 U/kg, the third 20 U/kg and fourth 30 U/kg body weight, were injected. In the treatment that lasted 7 weeks 30 U/kg body weight were injected for the remaining 3 weeks. Blood glucose levels were measured by collecting a drop of blood from the tail directly onto a test strip from TrueTrack smart system (CVS pharmacy). Eye bleeds were avoided due to the fact that cell survival in the retina was being assayed.
Quantification of cone survival was performed as follows. The colors of the bright light image were inverted and processed with Imaris software (Bitplane Inc) to calculate the percentage of blue surface area versus the total retinal surface area (see also FIG. 17). A minimum of 8 retinae per treatment, and for the control, were analyzed. P-values were calculated by the student's t-test.

[1] = tested on: photoreceptors (rods and cones) of rd10 mouse; conditions: cited from earlier work
HIF-1α = HIF-1α immunofluorescence on retinal flat mounts of treated PDE-β−/− mice; assay type: in vivo, mouse; conditions: PDE-β−/− mice treated for 4 weeks
Experimental: as §1, with “Eye bleeds were avoided due to the fact that cell survival in the retina was being assayed.” left out
(§2) Whole mount and section antibody staining were performed as previously (Punzo, C. & Cepko, C. L. (2008) Dev Dyn 237, 1034-42) described with the following modifications. […] Time points analyzed for the rod and cone death kinetics (P: postnatal day; PW: postnatal week): PDE-β−/−: P10-P20 daily, PW3-10 weekly, PW 12, PW15, PW18, PW45; PDE-γ-KO: P10-P20 daily, PW3-PW10 weekly, PW15, PW25, PW45; Rho-KO: PW4-PW8 weekly, PW10, PW11, PW17, PW20, PW25, PW27, PW31, PW34, PW37, PW45, PW55, PW80; P23H: PW5, PW10, PW16, PW25, PW30, PW35, PW40, PW65, PW70, PW75, PW80, PW85.

p*-mTOR in dorsal cones = assay: Retinal explant culture of wild type mice, p*-mTOR immunofluorescence; assay type: cell-based, mouse; conditions: wild type retinal explants, 4 hours, absence of glucose, leucine added at 200 μM
Experimental: Retinal explant cultures: The retina was dissected free from other ocular tissues in DMEM, and then incubated in conditions according to the chart in FIG. 10a. Regular DMEM was at 4.5 g/L glucose, low glucose was at 1 g/L, leucine was added at 200 μM and FCS at 10%. Incubation was performed for 4 h and the retinae were fixed and processed for antibody staining as described below.
as §2, with “modifications. Antibody staining for LAMP-2: Triton was replaced with 0.01% Saponin. Antibody staining for p*-mTOR and p*-S6: PBS was replaced by TBS in every step of the procedure.” for “modifications.”

Compound	cone survival (cones of PDE-β−/− mice)	cone survival after prolonged treatment (cones of PDE-β−/− mice)	also measured
CN(N=O)C(=O)N[C@H]1C(O)O[C@H](CO)[C@@H](O)[C@@H]1O (mixture of isomers) [streptozotocin]	decrease in cone survival	no significant difference in cone survival	–
proinsulin	–	–	hyperglycemia ([1]; mice treated with proinsulin): did not develop hyperglycemia; photoreceptor death ([1]; rd10 mouse, constitutive expression, rods and cones): delays photoreceptor death
insulin	improved cone survival; also recorded: prolonged cone survival	did not show any significant improvement of cone survival; also recorded: no significant difference in cone survival	upregulation of HIF-1α in cones (HIF-1α): did not show the upregulation of HIF-1α; also recorded: prevented the upregulation of HIF-1α
CC(C)C[C@H](N)C(=O)O [leucine]	–	–	dorsal p*-mTOR with increased leucine (p*-mTOR in dorsal cones): abolished
